# Laboratory results published in US20070167499A1, “Biaryl linked hydroxamates: preparation and pharmaceutical applications” (A*BIO Pte Ltd., priority 2003, published 2007).
# Legend:
# NCI H552 = test: Cell-based proliferation assay for determination of GI50 values, lung cancer cell line; conditions: Homo sapiens; 96 h treatment, cyquant cell proliferation assay; read-out: Cellular activities GI50, NCI H552
# Experimental: (§1) Cell-based Proliferation assay for determination of GI50 values
# (§2) Three different cancer cell lines were obtained from ATCC: Human colon cancer cell line (Colo205), human breast cancer cell lines (MDA-MB435), and human lung cancer cell line (NCl-H522). Colo205 cells and NCl-H522 were cultivated in RPMI 1640 containing 2 mM
# (§3) L-Glutamine, 5% FBS, 1.0 mM Na Pyruvate. MDA-MB435 cells were cultivated in DMEM containing 2 mM L-Glutamine, 5% FBS. Colo205 cells were seeded in 96-wells plate at 2000 and 5000 cells per well respectively. MDA-MB435 and NCl-H522 cells were seeded in 96-wells plate at 6000 cells per well. The plates were incubated at 37° C., 5% CO2, for 24 h. Cells were treated with compounds at various concentrations for 96 h. Cell growth was then monitored using cyquant cell proliferation assay (Invitrogen Pte Ltd). Dose response curves were plotted to determine GI50 values for the compounds using XL-fit (ID Business Solution, Emeryville, Calif.).
# Colo205 = test: Cell-based proliferation assay for determination of GI50 values, colon cancer cell line; conditions: Homo sapiens, COLO 205; 96 h treatment, cyquant cell proliferation assay; read-out: Cellular activities GI50, Colo205
# Experimental: as §1, §2, §3
compound,measurement,setting,value
CC(C)(C)OC(=O)N1CCN(c2ccc(C(=O)Nc3nc(-c4ccc(CC(=O)NO)s4)cs3)cc2)CC1 [Example 9],GI50,NCI H552,3.01 µM
same,GI50,Colo205,5.47 µM
